Laboratory results reported in US20100234278A1, “PROPHYLACTIC AND/OR THERAPEUTIC AGENTS FOR PERIPHERAL NEUROPATHY” (priority 2006, published 2010).
“Also recorded” adds a separate entry of the source.

Key:
sciatic nerve axons = test: Histopathological evaluation of sciatic nerves (toluidine blue staining); assay type: in vivo, ICR mice
Procedure: ICR mice (male) were purchased at 5 weeks of age and handled for 1 week before use in the experiment. As an anticancer agent, taxotere (Taxotere injection, Aventis Pharma, 1V 80 mg 2 mL) was used. […] The vehicle serving as a control (0 mg/kg) was prepared in the same manner using Tween-80 and physiological saline for iv administration. On the other hand, recombinant human EPO under the trade name Epogin (Chugai Pharmaceutical Co., Ltd., Japan) was adjusted using a solution (containing […] NaCl, 0.125% histidine-HCl and 0.005% Tween 80 in 10 mmol/L phosphate buffer (pH 6.0)) and administered at 720 U/head/week. The administration schedule was as follows: […], once a week for 3 weeks (3 times in total on days 0, 7 and 14), while the vehicle and EPO (720 U/head) were each given sc (into the dorsal neck region) 3 hours before taxotere treatment. Muscle tissue was peeled off to expose sciatic nerves. Under this state, a glutaraldehyde fixing solution (stored on ice immediately before use) was added to immerse all the sciatic nerves. After incubation for 10 minutes, the sciatic nerves were isolated and gently shaken for 1 hour in a shaker containing a glutaraldehyde fixing solution. The sciatic nerves were then embedded in a standard manner into a resin for electron microscopic examination. Toluidine blue-stained sections were prepared and evaluated for the degree of axonal degeneration at three levels: none (−), mild (+) and moderate (++).

[1] = tested on: taxotere-induced peripheral neuropathy model mice; test: Evaluation of neurological symptoms in taxotere-induced peripheral neuropathy model; assay type: in vivo, ICR mice
Procedure: ICR mice (male) were purchased at 5 weeks of age and handled for 1 week before use in the experiment.
As an anticancer agent, taxotere (Taxotere injection, Aventis Pharma, 1V 80 mg 2 mL) was used.
Using the attached solution and physiological saline, taxotere was adjusted to a volume of about 0.15 ml per 10 g mouse body weight (45 mg/kg iv, 90 mg/kg ip). The vehicle serving as a control (0 mg/kg) was prepared in the same manner using Tween-80 and physiological saline for iv administration.
On the other hand, recombinant human EPO under the trade name Epogin (Chugai Pharmaceutical Co., Ltd., Japan) was adjusted using a solution (containing […] NaCl, 0.125% histidine-HCl and 0.005% Tween 80 in 10 mmol/L phosphate buffer (pH 6.0)) and administered at 720 U/head/week. The administration schedule was as follows: taxotere was given at 0 or 45 mg/kg iv (via the tail vein) or at 90 mg/kg ip, once a week for 3 weeks (3 times in total on days 0, 7 and 14), while the vehicle and EPO (720 U/head) were each given sc (into the dorsal neck region) 3 hours before taxotere treatment.
Continuous treatment with taxotere will induce typical hind leg crossing in mice when hanged by their tails. If the symptoms reach an advanced stage, the same crossing response will also occur in the forelegs, thereby leading to dysbasia. Such a symptom was used as an indicator to evaluate the mice as follows: 0=no symptom; 0.5=abnormal movement without clear flexion; 1=flexion in one hind leg; 2=hind leg flexion or extension lasting for 2 seconds or longer; 3=dysbasia. Scoring was accomplished by blind evaluation of symptoms.

[2] = tested on: DRG (dorsal root ganglia); conditions: caused by addition of HIV envelop glycoprotein gp120 (Keswanai et al., 2004); cited from earlier work
[3] = tested on: streptozotocin-induced diabetes model rats; conditions: streptozotocin-induced diabetes model rats (Bianchi et al., 2004); cited from earlier work
[4] = tested on: cisplatin-treated cancer patients; conditions: EPO-treated group (Mangiameli et al., 2002); cited from earlier work
[5] = taxotere 90 mg/kg ip group (vehicle)

Compound | Histological change of sciatic nerve axons, in words (sciatic nerve axons; groups receiving taxotere) | Degree of axonal degeneration: number of animals at mild (+) (sciatic nerve axons; [5]) | Degree of axonal degeneration: number of animals at moderate (++) (sciatic nerve axons; [5]) | Degree of axonal degeneration: number of animals at ± (sciatic nerve axons; [5]) | Time at which neurological symptoms developed after the treatment ([1]; taxotere 45 mg/kg iv once a week) | Time at which neurological symptoms developed after the treatment ([1]; taxotere 90 mg/kg ip once a week) | Cell loss in DRG [2] | Pain [3] | Reduced nerve conduction velocity [3] | Neurological symptom scores [4] | Degeneration levels of sciatic nerve axons, range of the group (sciatic nerve axons; EPO group upon taxotere 90 mg/kg ip treatment) | Effect on axonal degeneration of sciatic nerves, in words (sciatic nerve axons; EPO versus vehicle, taxotere 90 mg/kg ip) | Effect on neurological symptoms ([1]; neuropathy induced by taxotere 90 mg/kg ip, EPO 720 U/head sc, after 10 days (FIG. 2))
CC(=O)O[C@@]12CO[C@@H]1C[C@H](O)[C@@]1(C)C(=O)[C@H](O)C3=C(C)[C@@H](OC(=O)[C@H](O)[C@@H](NC(=O)OC(C)(C)C)c4ccccc4)C[C@@](O)([C@@H](OC(=O)c4ccccc4)[C@H]21)C3(C)C [taxotere] | diameter reduction and deformation of axons, which were indicative of clear axonal degeneration | 1 | 3 | 3 | around 8 days | around 8 days | – | – | – | – | – | – | –
erythropoietin [EPO] | – | – | – | – | – | – | prevents cell loss in DRG | improves | improves reduced nerve conduction velocity | significantly improved | ± to mild (+) | tendency to alleviate neuropathy; also recorded: tended to suppress exacerbation | reduce significantly the neurological symptoms; also recorded: tended to suppress exacerbation of neurological symptoms
